Bounds are passed on as bounds.

Test [1] addresses T1, β2 (Homo sapiens, UniProt P07550). Kind of test: competitive radioligand binding, HEK293 membranes. The arrangement: gene ADRB2; full-length receptor; HEK293 cell membranes. From the text:
competitive radioligand binding, HEK293 membranes on β2

For a further test, the target named is T2, M4 (Homo sapiens, UniProt P08173).
T2 construct: gene CHRM4; full-length receptor; HEK293 with TRUPATH sensors (function)
T2 sequence (P08173 1-479): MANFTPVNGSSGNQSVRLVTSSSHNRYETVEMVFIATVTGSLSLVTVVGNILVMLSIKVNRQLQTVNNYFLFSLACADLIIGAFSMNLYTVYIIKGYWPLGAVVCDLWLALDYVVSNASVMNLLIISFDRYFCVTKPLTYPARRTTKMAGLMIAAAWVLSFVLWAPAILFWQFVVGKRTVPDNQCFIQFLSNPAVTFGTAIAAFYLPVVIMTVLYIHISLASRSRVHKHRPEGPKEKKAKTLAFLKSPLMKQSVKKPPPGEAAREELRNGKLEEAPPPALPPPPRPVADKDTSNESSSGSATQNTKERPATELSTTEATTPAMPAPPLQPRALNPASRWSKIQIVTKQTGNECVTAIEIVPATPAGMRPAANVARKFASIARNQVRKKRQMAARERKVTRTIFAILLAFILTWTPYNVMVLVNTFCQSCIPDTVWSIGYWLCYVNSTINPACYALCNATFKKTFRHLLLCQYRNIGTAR
Kind of test: competitive radioligand binding, HEK293 membranes.

For a further test, the target named is HRH4 (Homo sapiens, UniProt Q9H3N8). Kind of test: cell-based. The arrangement: species or system HEK293; TRUPATH BRET2 G-protein dissociation; antagonist mode against agonist EC80. Conditions: N-Desmethyl Xanomeline, agonist mode.
HRH4, sequence (Q9H3N8 whole entry): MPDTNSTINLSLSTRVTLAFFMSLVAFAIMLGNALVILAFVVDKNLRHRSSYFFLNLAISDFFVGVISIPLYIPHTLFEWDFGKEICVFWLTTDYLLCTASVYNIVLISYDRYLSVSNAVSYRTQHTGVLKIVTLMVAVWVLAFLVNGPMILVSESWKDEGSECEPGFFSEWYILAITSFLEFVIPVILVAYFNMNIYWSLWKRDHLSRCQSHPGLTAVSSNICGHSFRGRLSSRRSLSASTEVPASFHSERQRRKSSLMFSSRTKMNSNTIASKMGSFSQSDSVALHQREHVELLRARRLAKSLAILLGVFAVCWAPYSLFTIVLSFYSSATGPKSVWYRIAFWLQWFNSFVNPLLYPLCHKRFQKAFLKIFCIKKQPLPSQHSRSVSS
The target of test [2] is T3, CHRM3 (Homo sapiens, UniProt P20309). As to the kind of experiment: cell-based. To be noted: Assay=Tango; agonist mode. Set-up: species or system HTLA; PRESTO-Tango beta-arrestin2 recruitment, luciferase luminescence, concentration-response.
T3 sequence (P20309 whole entry): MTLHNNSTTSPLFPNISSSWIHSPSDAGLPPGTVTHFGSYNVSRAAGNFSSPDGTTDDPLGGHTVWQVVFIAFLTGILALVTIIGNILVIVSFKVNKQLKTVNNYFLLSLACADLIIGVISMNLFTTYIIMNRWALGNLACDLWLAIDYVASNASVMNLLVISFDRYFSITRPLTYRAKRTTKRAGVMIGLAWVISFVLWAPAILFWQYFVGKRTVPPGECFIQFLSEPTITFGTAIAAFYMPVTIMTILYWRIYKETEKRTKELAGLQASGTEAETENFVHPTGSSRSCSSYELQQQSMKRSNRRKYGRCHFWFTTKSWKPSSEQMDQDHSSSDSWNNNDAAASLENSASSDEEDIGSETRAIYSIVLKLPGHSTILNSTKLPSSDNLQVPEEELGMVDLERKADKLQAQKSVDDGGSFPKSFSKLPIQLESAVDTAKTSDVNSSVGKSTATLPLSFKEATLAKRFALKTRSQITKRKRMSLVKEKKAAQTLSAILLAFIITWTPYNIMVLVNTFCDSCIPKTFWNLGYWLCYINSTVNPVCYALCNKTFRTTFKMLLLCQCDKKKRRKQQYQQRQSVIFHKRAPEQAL
In the next test the target is SSTR4 (Homo sapiens, UniProt P31391). Kind of test: cell-based. Set-up: species or system HTLA; PRESTO-Tango beta-arrestin2 recruitment, luciferase luminescence, concentration-response. To be noted: Assay=Tango; agonist mode.
SSTR4, sequence (P31391 whole entry): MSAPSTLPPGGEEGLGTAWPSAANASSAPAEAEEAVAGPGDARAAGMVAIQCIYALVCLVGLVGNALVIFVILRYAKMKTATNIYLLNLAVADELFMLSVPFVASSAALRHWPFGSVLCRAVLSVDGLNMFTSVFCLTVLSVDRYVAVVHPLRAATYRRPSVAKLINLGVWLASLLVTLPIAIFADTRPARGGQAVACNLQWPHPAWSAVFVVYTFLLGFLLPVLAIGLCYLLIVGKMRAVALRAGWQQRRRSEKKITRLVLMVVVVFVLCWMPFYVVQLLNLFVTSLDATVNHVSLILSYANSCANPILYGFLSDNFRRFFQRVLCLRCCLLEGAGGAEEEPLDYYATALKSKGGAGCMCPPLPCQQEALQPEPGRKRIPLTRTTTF
Test [3] addresses T1, β2. As to the kind of experiment: biochemical. Set-up: gene ADRB2; species or system HEK293; PDSP competitive radioligand binding, membranes of transfected HEK293 cells, filtration, Ki by Cheng-Prusoff. The method, then: (§1) Competitive radioligand binding assays were performed at the NIMH Psychoactive Drug Screening Program (PDSP) using membranes from transiently transfected HEK293 cells in 96-well format as described. Complete, target-specific protocols are available at the PDSP website (https://pdsp.unc.edu/pdspweb/?site=assays). Primary screenings were run at a single test concentration (10 µM) in quadruplicate. […] Secondary assays were conducted in triplicate using 12-point serial dilutions (0, 0.1, 0.3, 1, 3, 10, 30, 100, 300 nM; 1, 3, 10 µM). Assays were performed in a final volume of 125 µL per well in binding buffer, as detailed in the NIMH PDSP protocols (e.g., standard binding buffer: 50 mM Tris-HCl, pH 7.4, 10 mM MgCl2, 0.1 mM EDTA). Radioligand concentrations were chosen near the target-specific Kd. […] After 90 min incubation at room temperature, reactions were terminated by vacuum filtration onto 0.3% polyethyleneimine-pretreated UniFilter-96 GF/C Microplates using a FilterMate harvester, washed three times with ice-cold buffer (50 mM Tris HCl, pH 7.4), dried, treated with MicroScint-O [compound left out] scintillation cocktails, and counted on a MicroBeta counter. Equilibrium inhibition constants (Ki) were calculated from fitted IC50 values using the Cheng–Prusoff equation [14] with the assay-specific radioligand concentration and Kd. […] ND=not determined.

In test [4] the target is T3, CHRM3. Kind of test: cell-based. Set-up: species or system HEK293; TRUPATH BRET2 G-protein dissociation; antagonist mode against agonist EC80. Conditions: Xanomeline, Assay=Gq; agonist mode.
Another test deals with T4, DRD4 (Homo sapiens, UniProt P21917).
T4 sequence (P21917 1-419): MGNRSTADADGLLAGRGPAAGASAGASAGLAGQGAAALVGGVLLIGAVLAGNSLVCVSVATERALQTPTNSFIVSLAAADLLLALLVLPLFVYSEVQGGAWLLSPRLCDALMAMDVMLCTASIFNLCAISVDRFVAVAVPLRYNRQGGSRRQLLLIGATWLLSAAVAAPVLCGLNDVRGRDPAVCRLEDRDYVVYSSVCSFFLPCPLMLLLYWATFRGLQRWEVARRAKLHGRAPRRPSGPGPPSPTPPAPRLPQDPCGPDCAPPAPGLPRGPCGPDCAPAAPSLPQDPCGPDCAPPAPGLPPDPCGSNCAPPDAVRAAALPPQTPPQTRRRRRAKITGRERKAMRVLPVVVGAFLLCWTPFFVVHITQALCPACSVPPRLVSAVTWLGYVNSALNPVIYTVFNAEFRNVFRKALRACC
Kind of test: cell-based. To be noted: Assay=Tango; agonist mode. Set-up: species or system HTLA; PRESTO-Tango beta-arrestin2 recruitment, luciferase luminescence, concentration-response.

Another test addresses α1A (Homo sapiens, UniProt P35348). As to the kind of experiment: biochemical. Set-up: gene ADRA1A; species or system HEK293; PDSP competitive radioligand binding, membranes of transfected HEK293 cells, filtration, Ki by Cheng-Prusoff. How it is done: as §1

T1 sequence (P07550 whole entry): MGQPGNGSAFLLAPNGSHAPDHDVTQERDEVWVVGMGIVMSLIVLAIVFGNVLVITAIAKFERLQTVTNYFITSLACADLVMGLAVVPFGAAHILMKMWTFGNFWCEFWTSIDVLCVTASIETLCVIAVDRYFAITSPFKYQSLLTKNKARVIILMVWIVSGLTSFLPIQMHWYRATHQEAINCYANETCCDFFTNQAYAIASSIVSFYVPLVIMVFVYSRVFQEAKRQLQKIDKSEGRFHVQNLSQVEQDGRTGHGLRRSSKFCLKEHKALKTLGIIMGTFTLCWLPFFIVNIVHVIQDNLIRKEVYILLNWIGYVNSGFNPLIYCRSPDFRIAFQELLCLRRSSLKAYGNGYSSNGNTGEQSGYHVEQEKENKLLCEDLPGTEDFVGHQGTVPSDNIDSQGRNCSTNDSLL
α1A, sequence (P35348 whole entry): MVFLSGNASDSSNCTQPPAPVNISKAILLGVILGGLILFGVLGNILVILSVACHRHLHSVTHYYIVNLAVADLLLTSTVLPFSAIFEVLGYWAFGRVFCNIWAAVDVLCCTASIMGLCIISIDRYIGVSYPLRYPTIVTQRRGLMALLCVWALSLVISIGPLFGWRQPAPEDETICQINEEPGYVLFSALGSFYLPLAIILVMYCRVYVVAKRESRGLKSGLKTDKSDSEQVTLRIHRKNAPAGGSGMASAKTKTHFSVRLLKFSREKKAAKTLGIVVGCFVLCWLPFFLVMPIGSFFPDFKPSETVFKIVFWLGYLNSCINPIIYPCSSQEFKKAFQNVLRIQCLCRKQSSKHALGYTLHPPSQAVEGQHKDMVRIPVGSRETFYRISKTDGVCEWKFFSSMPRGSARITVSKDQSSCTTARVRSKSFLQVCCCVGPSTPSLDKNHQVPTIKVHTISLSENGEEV

For the compound `CCCCCCOc1nsnc1C1=CCCNC1` [N-desmethylxanomeline], the inhibition constant Ki – broadly, the equilibrium dissociation constant of an inhibitor or competing ligand from its target – at β2 [1] was 832 nM; on M4 it was 117 nM. For the same compound, the concentration for a half-maximal effect (EC50) (commonly the concentration that produces a half-maximal response) on HRH4 (Assay=Gi1) worked out at 4870 nM; at HRH4 (Assay=Gi2) it was 1390 nM; on HRH4 (Assay=Gi3), 6360 nM; on HRH4 (Assay=GoA), 6250 nM; at CHRM3 [2], 104 nM; at SSTR4 it was 931 nM.
In the case of `CCCCCCOc1nsnc1C1=CCCN(C)C1` [Xanomeline], the Ki on β2 [3] and at α1A was greater than 10000 nM throughout. The values for the EC50 on CHRM3 [4] and on DRD4 were 53.4 nM and 4800 nM, respectively.
